# Data as given in patent US10144715B2, “Piperazine derivatives as liver X receptor modulators” (priority 2014, dated 2018).
# Read-outs that look alike come from different tables or passages of the source.
# Tests used:
# [1] = target: Gal4 DNA binding domain fused to the LBD of LXRα in HEK293 cells (Homo sapiens (Human), UniProt Q13133); assay: LXR luciferase transcriptional reporter gene assay, agonist mode, LXRα; format: cell-based; details: for EC50: read-out: Cell LXRα EC50
# LXR α LBD protein = LXR α LBD protein (Homo sapiens (Human), UniProt Q13133); assay: LXR α radioligand binding assay (SPA, competition with [3H]TO901317); details: read-out: LXRα Binding Ki
# Sequence of LXR α LBD protein (Q13133 209-447): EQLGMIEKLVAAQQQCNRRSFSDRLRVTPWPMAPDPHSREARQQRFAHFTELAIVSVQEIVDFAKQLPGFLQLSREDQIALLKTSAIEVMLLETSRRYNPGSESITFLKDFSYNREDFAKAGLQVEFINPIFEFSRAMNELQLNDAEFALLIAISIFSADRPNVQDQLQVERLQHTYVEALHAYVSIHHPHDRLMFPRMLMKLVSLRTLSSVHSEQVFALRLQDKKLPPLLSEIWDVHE
# [2] = target: Gal4 DNA binding domain fused to the LBD of LXRβ in HEK293 cells (Homo sapiens (Human), UniProt P55055); assay: cell-based
# Sequence of Gal4 DNA binding domain fused to the LBD of LXRβ in HEK293 cells (P55055 222-460 limits assumed): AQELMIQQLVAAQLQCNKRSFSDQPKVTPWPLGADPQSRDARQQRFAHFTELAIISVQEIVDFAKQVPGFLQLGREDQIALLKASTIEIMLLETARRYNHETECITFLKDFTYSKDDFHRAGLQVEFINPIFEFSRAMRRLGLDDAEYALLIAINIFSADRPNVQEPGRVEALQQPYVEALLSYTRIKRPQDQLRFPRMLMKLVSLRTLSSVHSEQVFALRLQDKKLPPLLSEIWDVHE
# [3] = Biological Test Example 2, agonist mode
# [4] = Biological Test Example 2, agonist mode, read-out: Cell LXRβ EC50
# Sequence of Gal4 DNA binding domain fused to the LBD of LXRα in HEK293 cells (Q13133 209-447): as the sequence (Q13133 209-447) above
SMILES,Cell LXRα efficacy [1],EC50 ([1]; agonist mode) [nM],Ki (LXR α LBD protein) [nM],also measured
"CC(O)c1cnc(N2CCN(c3ccc(F)c(S(C)(=O)=O)c3)C[C@H]2c2ccc(F)cc2)nc1C(F)(F)F (stereo partly drawn) [12-9, 1-(2-((R)-4-(4-fluoro-3-(methylsulfonyl)phenyl)-2-(4-fluorophenyl)piperazin-1-yl)-4-(trifluoromethyl)pyrimidin-5-yl)ethan-1-ol]",4884 (19) %,4880,896,–
"CCOC(=O)c1cnc(N2CCN(c3ccc(F)c(S(C)(=O)=O)c3)C[C@H]2CC(C)C)nc1C(F)(F)F [9-7, ethyl (R)-2-(4-(4-fluoro-3-(methylsulfonyl)phenyl)-2-isobutylpiperazin-1-yl)-4-(trifluoromethyl)pyrimidine-5-carboxylate]",960 (34) %,960,33,–
"CC1(C)CCC(CN2CCN(c3ccc(CO)c(S(C)(=O)=O)c3)C[C@@H]2c2ccccc2)CC1 (single isomer, unassigned) [48-26]",364 (73) %,364,39,–
"Cc1nc(N2CCN(c3ccc(F)c(S(C)(=O)=O)c3)C[C@H]2C(C)(C)O)ccc1C(F)(F)F [10-10, (S)-2-(4-(4-fluoro-3-(methylsulfonyl)phenyl)-1-(6-methyl-5-(trifluoromethyl)pyridin-2-yl)piperazin-2-yl)propan-2-ol]",13605 (107) %,13600,–,–
"CC(C)[C@@H]1CN(c2ccc(CN)c(S(C)(=O)=O)c2)CCN1c1nccc(C(F)(F)F)n1 [15-11, (R)-(4-(3-isopropyl-4-(4-(trifluoromethyl)pyrimidin-2-yl)piperazin-1-yl)-2-(methylsulfonyl)phenyl)methanamine]",4307 (42) %,4310,2180,–
"Cc1nc(N2CCN(c3ccc(F)c(S(C)(=O)=O)c3)C[C@H]2C(C)C)ncc1S(C)(=O)=O [Cpd No 3-3, (R)-2-(4-(4-fluoro-3-(methylsulfonyl)phenyl)-2-isopropylpiperazin-1-yl)-4-methyl-5-(methylsulfonyl)pyrimidine]",9543 (37) %,9540,> 3330,–
"CCOC(=O)c1cnc(N2CCN(c3ccc(-c4nc(C(N)=O)cs4)c(S(C)(=O)=O)c3)C[C@H]2C(C)C)nc1C(F)(F)F [9-14, ethyl (R)-2-(4-(4-(4-carbamoylthiazol-2-yl)-3-(methylsulfonyl)phenyl)-2-isopropylpiperazin-1-yl)-4-(trifluoromethyl)pyrimidine-5-carboxylate]",3003 (28) %,–,407,EC50 [1]: 3000 nM
"CC(C)[C@@H]1CN(c2ccc(CO)c(S(C)(=O)=O)c2)CCN1c1nc(C(F)(F)F)c(C(C)(C)O)s1 [Cpd No 27-1, (R)-2-(2-(4-(4-(hydroxymethyl)-3-(methylsulfonyl)phenyl)-2-isopropylpiperazin-1-yl)-4-(trifluoromethyl)thiazol-5-yl)propan-2-ol]",225 (97) %,225,27,–
"CC(C)[C@@H]1CN(c2ccc(F)c(S(C)(=O)=O)c2)CCN1c1ncc(C(F)(F)F)cc1Cl [7-41, (R)-1-(3-chloro-5-(trifluoromethyl)pyridin-2-yl)-4-(4-fluoro-3-(methylsulfonyl)phenyl)-2-isopropylpiperazine]",949 (84) %,949,72,–
"CC(O)c1nc(N2CCN(c3ccc(F)c(S(C)(=O)=O)c3)C[C@H]2C(C)C)ncc1C(F)(F)F (stereo partly drawn) [Cpd No 38-1, 1-(2-((R)-4-(4-fluoro-3-(methylsulfonyl)phenyl)-2-isopropylpiperazin-1-yl)-5-(trifluoromethyl)pyrimidin-4-yl)ethan-1-ol]",165 (89) %,165,67,–
"COC(=O)c1cnc(N2CCN(c3ccc(F)c(S(=O)(=O)N(C)Cc4ccc(OC)cc4)c3)C[C@H]2C(C)C)nc1C(F)(F)F [9-3, methyl (R)-2-(4-(4-fluoro-3-(N-(4-methoxybenzyl)-N-methylsulfamoyl)phenyl)-2-isopropylpiperazin-1-yl)-4-(trifluoromethyl)pyrimidine-5-carboxylate]",951 (50) %,951,–,–
"CS(=O)(=O)c1cccc(N2CCN(Cc3ccc(C(F)(F)F)nc3)C(c3ccc(Br)cc3)C2)c1 (stereo not shown) [46-61, 2-(4-bromophenyl)-4-(3-(methylsulfonyl)phenyl)-1-((6-(trifluoromethyl)pyridin-3-yl)methyl)piperazine]",–,> 20000,–,–
"CS(=O)(=O)c1cccc(N2CCN(C[C@H]3CCC[C@@H](C(F)(F)F)C3)[C@@H](c3ccc(F)cc3)C2)c1 [48-42, (S)-2-(4-fluorophenyl)-4-(3-(methylsulfonyl)phenyl)-1-(((1S,3R)-3-(trifluoromethyl)cyclohexyl)methyl)piperazine]",–,> 20000,–,–
"COC(=O)c1ccc(N2CCN(Cc3ccc(C(F)(F)F)c(Cl)c3)C(c3ccccc3)C2)cc1S(C)(=O)=O (stereo not shown) [46-38, methyl 4-(4-(3-chloro-4-(trifluoromethyl)benzyl)-3-phenylpiperazin-1-yl)-2-(methylsulfonyl)benzoate]",1088 (25) %,1090,–,–
"CC(C)[C@@H]1CN(c2ccc(F)c(S(C)(=O)=O)c2)CCN1C(=O)OCC(F)(F)F [5-4, 2,2,2-trifluoroethyl (R)-4-(4-fluoro-3-(methylsulfonyl)phenyl)-2-isopropylpiperazine-1-carboxylate]",–,–,–,EC50 [2]: 732 nM
"CC(C)[C@H]1CN(c2cccc(S(C)(=O)=O)c2)CCN1CC1CCC(C(F)(F)F)NC1 (stereo partly drawn) [48-68, (2S)-2-isopropyl-4-(3-(methylsulfonyl)phenyl)-1-((6-(trifluoromethyl)piperidin-3-yl)methyl)piperazine]",1224 (75) %,–,–,"EC50 [1, 3]: 1220 nM"
"Cc1cnc(N2CCN(c3ccc(F)c(S(C)(=O)=O)c3)C[C@H]2C(C)C)nc1C(F)(F)F [Cpd No 37-3, (R)-2-(4-(4-fluoro-3-(methylsulfonyl)phenyl)-2-isopropylpiperazin-1-yl)-5-methyl-4-(trifluoromethyl)pyrimidine]",–,–,–,Cell LXRβ efficacy [2]: 11 (96) %; EC50 [2]: 11 nM
"Cc1nc(N2CCN(c3ccc(F)c(S(C)(=O)=O)c3)C[C@@H]2C(C)(C)O)ccc1C(F)(F)F [10-9, (R)-2-(4-(4-fluoro-3-(methylsulfonyl)phenyl)-1-(6-methyl-5-(trifluoromethyl)pyridin-2-yl)piperazin-2-yl)propan-2-ol]",–,> 20000,–,–
"CC(C)[C@@H]1CN(c2ccc(F)c(S(C)(=O)=O)c2)CCN1c1ncc(Cl)c(C2CC2)n1 [Cpd No 22-1, (R)-5-chloro-4-cyclopropyl-2-(4-(4-fluoro-3-(methylsulfonyl)phenyl)-2-isopropylpiperazin-1-yl)pyrimidine]",1482 (31) %,–,–,Cell LXRβ efficacy [2]: 139 (14) %; EC50 [2]: 139 nM; EC50 [1]: 1480 nM
"CS(=O)(=O)c1cccc(N2CCN(C[C@H]3C[C@@H]4[C@H](C3)C4(F)F)[C@H](c3ccccc3)C2)c1 (single isomer, unassigned) [48-65]",–,–,–,"Cell LXRβ efficacy [2, 3]: 48%; EC50 [2, 4]: 7050 nM; EC50 [1]: > 20000 nM"
"CC(C)[C@H]1CN(c2cccc(S(C)(=O)=O)c2)CCN1C[C@H]1CC[C@@H](C(F)(F)F)CC1 (single isomer, unassigned) [Cpd No 48-11]",53 (101) %,53,–,–
"CC(C)[C@@H]1CN(c2ccc(F)c(S(C)(=O)=O)c2)CCN1C(=O)OC1CC(F)(F)C1(F)F (stereo partly drawn) [Cpd No 5-1, 2,2,3,3-tetrafluorocyclobutyl (2R)-4-(4-fluoro-3-(methylsulfonyl)phenyl)-2-isopropylpiperazine-1-carboxylate]",–,–,–,EC50 [2]: 272 nM
"CC(C)[C@@H]1CN(c2cccc(S(C)(=O)=O)c2)CCN1c1ncc(Br)cn1 [7-16, (R)-5-bromo-2-(2-isopropyl-4-(3-(methylsulfonyl)phenyl)piperazin-1-yl)pyrimidine]",1282 (85) %,1280,–,–
"CC(C)[C@@H]1CN(c2ccc(F)c(S(C)(=O)=O)c2)CCN1c1ncc(CN)c(C(F)(F)F)n1 [15-2, (R)-(2-(4-(4-fluoro-3-(methylsulfonyl)phenyl)-2-isopropylpiperazin-1-yl)-4-(trifluoromethyl)pyrimidin-5-yl)methanamine]",–,> 20000,–,Cell LXRβ efficacy [2]: 3001 (13) %; EC50 [2]: 3000 nM
"CC(C)[C@@H]1CN(c2ccc(F)c(S(C)(=O)=O)c2)CCN1c1ccc(F)c(C(F)(F)F)n1 [7-33, (R)-4-(4-fluoro-3-(methylsulfonyl)phenyl)-1-(5-fluoro-6-(trifluoromethyl)pyridin-2-yl)-2-isopropylpiperazine]",307 (115) %,307,–,–
"CS(=O)(=O)c1cc(N2CCN(c3ncc(C(=O)O)c(C(F)(F)F)n3)[C@H](c3ccc(F)cc3)C2)ccc1F [16-2, (R)-2-(4-(4-fluoro-3-(methylsulfonyl)phenyl)-2-(4-fluorophenyl)piperazin-1-yl)-4-(trifluoromethyl)pyrimidine-5-carboxylic acid]",–,> 20000,–,EC50 [2]: > 20000 nM
"CS(=O)(=O)c1cccc(N2CCN(C[C@@H]3C[C@@H]4[C@H](C3)C4(F)F)[C@H](c3ccccc3)C2)c1 [48-67, (R)-1-(((1R,3s,5S)-6,6-difluorobicyclo[3.1.0]hexan-3-yl)methyl)-4-(3-(methylsulfonyl)phenyl)-2-phenylpiperazine]",7547 (30) %,–,–,"Cell LXRβ efficacy [2, 3]: 47%; EC50 [2, 4]: 2400 nM; EC50 [1]: 7550 nM"
"CS(=O)(=O)c1cccc(N2CCN(C[C@H]3CC[C@H](C(F)(F)F)CC3)[C@H](c3ccccc3Cl)C2)c1 (single isomer, unassigned) [48-47]",–,–,–,"Cell LXRβ efficacy [2, 3]: 26%; EC50 [2, 4]: 1380 nM; EC50 [1]: > 20000 nM"
